From the supplement of paper PMC10733146

Key:
Test in all cases: viability relative to DMSO control (fraction); higher = less drug effect (more viable cells)
Details in all cases: 48 h
[1] = compound: C1=N/C2=N/c3ccc(OCCN4CCCC4)c(c3)COC/C=C/COCc3cccc(c3)C(=C1)N2 [Pacritinib]
In short: (§1)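 In 384-well plates with compounds pre-plated at five concentrations (one well per concentration), primary mononuclear tumour cells were plated at 4 × 10^4 cells per well. The cells came from blood or bone marrow by Ficoll isolation or from processed lymph node, and were used fresh or cryopreserved. Culture ran for 48 h at 37 °C and 5% CO2 in RPMI-1640 containing penicillin/streptomycin, L-glutamine and human serum. Viability was read as CellTiter-Glo luminescence, normalised to the median of 16 inner DMSO wells.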

[2] = compound: CCOc1cc(C(=O)N2CCC(N3CCN(C)CC3)CC2)ccc1Nc1ncc2c(n1)N(C1CCCC1)c1ccccc1C(=O)N2C [ERK5-IN-1]
In short: as §1

[3] = compound: Cc1cn(-c2cc(NC(=O)c3ccc(C)c(Nc4nccc(-c5cccnc5)n4)c3)cc(C(F)(F)F)c2)cn1 [Nilotinib]
In short: as §1

Row | Test System | viability ([1]; 0.024 µM) | viability ([1]; 0.12 µM) | viability ([1]; 0.6 µM) | viability ([1]; 3 µM) | viability ([1]; 15 µM) | viability ([2]; 0.024 µM) | viability ([2]; 0.12 µM) | viability ([2]; 0.6 µM) | viability ([2]; 3 µM) | viability ([2]; 15 µM) | viability ([3]; 0.016 µM) | viability ([3]; 0.08 µM) | viability ([3]; 0.4 µM) | viability ([3]; 2 µM) | viability ([3]; 10 µM)
1 | primary ALL patient cells (S048) | 0.907 | 0.786 | 0.603 | 0.591 | 0.0174 | 0.657 | 0.69 | 0.397 | 0.241 | 0.0525 | 1.1 | 1.2 | 1.06 | 1.25 | 1.11
2 | primary ALL patient cells (S088) | 0.868 | 0.843 | 0.707 | 0.287 | 0.0205 | 0.841 | 0.851 | 0.472 | 0.39 | 0.114 | 1.16 | 1.16 | 1.14 | 1.22 | 1.26
3 | primary AML patient cells (S002) | 0.955 | 0.884 | 0.814 | 0.421 | 0.274 | 1.19 | 1.07 | 0.733 | 0.421 | 0.276 | 1.1 | 1.24 | 1.18 | 1.23 | 1.31
4 | primary AML patient cells (S006) | 1.07 | 0.805 | 0.403 | 0.198 | 0.021 | 1.08 | 1.12 | 1.23 | 0.93 | 0.58 | 1.17 | 1.08 | 1.13 | 1.09 | 1.14
5 | primary AML patient cells (S009) | 1.03 | 1.05 | 0.924 | 0.473 | 0.0416 | 1.04 | 0.839 | 0.697 | 0.62 | 0.213 | 1.05 | 1.05 | 1.08 | 1.06 | 1.02
6 | primary AML patient cells (S011) | 1.07 | 1.04 | 0.921 | 0.245 | 0.0204 | 0.93 | 0.778 | 0.663 | 0.445 | 0.152 | 1.15 | 1.18 | 1.09 | 1.13 | 1.15
7 | primary AML patient cells (S012) | 1.07 | 1.06 | 1.04 | 0.901 | 0.0606 | 1.11 | 0.967 | 0.965 | 0.445 | 0.0519 | 1.01 | 1.03 | 1.03 | 1.06 | 1.09
8 | primary AML patient cells (S017) | 1.02 | 1.17 | 0.992 | 0.378 | 0.028 | 0.981 | 0.898 | 0.896 | 0.523 | 0.161 | 1.14 | 0.991 | 1.12 | 1.06 | 1.12
9 | primary AML patient cells (S019) | 1.24 | 1.31 | 1.04 | 0.414 | 0.0953 | 0.986 | 1 | 0.906 | 0.766 | 0.357 | 1.5 | 1.4 | 1.42 | 1.37 | 1.4
10 | primary AML patient cells (S021) | 1.07 | 1 | 0.774 | 0.459 | 0.131 | 0.877 | 0.864 | 0.814 | 0.706 | 0.249 | 1.15 | 1.11 | 1.03 | 1.14 | 1.1
11 | primary AML patient cells (S025) | 0.905 | 1 | 0.848 | 0.345 | 0.0323 | 0.907 | 0.963 | 0.864 | 0.617 | 0.212 | 1.1 | 1.03 | 1.11 | 1.03 | 1.13
12 | primary AML patient cells (S037) | 0.99 | 1.13 | 1.02 | 0.885 | 0.315 | 0.961 | 0.87 | 0.751 | 0.541 | 0.43 | 1.11 | 1.13 | 1.07 | 1.08 | 1.14
13 | primary AML patient cells (S055) | 0.98 | 1.01 | 0.959 | 0.624 | 0.0399 | 0.929 | 0.945 | 0.914 | 0.818 | 0.615 | – | – | – | – | –
14 | primary AML patient cells (S056) | 0.77 | 0.831 | 0.988 | 0.132 | 0.0593 | 0.97 | 0.784 | 0.689 | 0.192 | 0.0822 | 1.05 | 1.03 | 1.08 | 1.08 | 1.14
15 | primary AML patient cells (S060) | 1.1 | 1.19 | 1.13 | 0.277 | 0.0188 | 1.01 | 0.981 | 0.987 | 0.769 | 0.239 | 1.09 | 1.03 | 1.09 | 1 | 1.1
16 | primary AML patient cells (S071) | 0.803 | 0.608 | 0.364 | 0.11 | 0.0661 | 0.967 | 0.876 | 0.89 | 0.66 | 0.238 | 1.18 | 1.11 | 1.21 | 1.14 | 1.23
17 | primary AML patient cells (S072) | 1 | 1.06 | 0.782 | 0.195 | 0.0242 | 0.944 | 0.813 | 0.709 | 0.568 | 0.264 | 1.16 | 1.11 | 1.2 | 1.13 | 1.23

Row | Test System | viability ([1]; 0.024 µM) | viability ([1]; 0.12 µM) | viability ([1]; 0.6 µM) | viability ([1]; 3 µM) | viability ([1]; 15 µM) | viability ([2]; 0.024 µM) | viability ([2]; 0.12 µM) | viability ([2]; 0.6 µM) | viability ([2]; 3 µM) | viability ([2]; 15 µM) | viability ([3]; 0.016 µM) | viability ([3]; 0.08 µM) | viability ([3]; 0.4 µM) | viability ([3]; 2 µM) | viability ([3]; 10 µM)
18 | primary AML patient cells (S079) | 1.02 | 1 | 0.879 | 0.509 | 0.0186 | 0.867 | 0.779 | 0.644 | 0.424 | 0.192 | 1.17 | 1.11 | 1.13 | 1.11 | 1.18
19 | primary AML patient cells (S081) | 1.04 | 1.12 | 0.949 | 0.514 | 0.0165 | 0.876 | 0.866 | 0.765 | 0.551 | 0.182 | 1.17 | 1.03 | 1.16 | 1.12 | 1.2
20 | primary AML patient cells (S085) | 1.06 | 0.884 | 0.686 | 0.178 | 0.0199 | 0.842 | 0.767 | 0.524 | 0.189 | 0.0801 | 1.07 | 1.13 | 1.13 | 1.06 | 1.18
21 | primary AML patient cells (S089) | 0.734 | 0.803 | 0.437 | 0.0646 | 0.0405 | 0.71 | 0.826 | 0.564 | 0.753 | 0.278 | 1.14 | 1.05 | 0.798 | 1 | 1.18
22 | primary AML patient cells (S091) | 0.924 | 0.891 | 0.732 | 0.176 | 0.0345 | 0.879 | 0.677 | 0.783 | 0.569 | 0.268 | 1.05 | 1.07 | 1.13 | 0.991 | 1.06
23 | primary B-PLL patient cells (S016) | 0.979 | 1.07 | 0.884 | 0.692 | 0.0511 | 1.03 | 0.97 | 1.02 | 0.853 | 0.548 | 1.31 | 1.07 | 1.11 | 1.09 | 1.16
24 | primary BL patient cells (S005) | 1 | 1 | 0.879 | 0.657 | 0.241 | 1.07 | 1.09 | 1 | 0.89 | 0.631 | 1.08 | 1.02 | 1.07 | 1.03 | 1.02
25 | primary CLL patient cells (S031) | 0.865 | 0.78 | 0.483 | 0.198 | 0.0138 | 0.949 | 0.925 | 0.839 | 0.651 | 0.223 | 1.09 | 1.12 | 1.16 | 1.13 | 1.09
26 | primary CLL patient cells (S043) | 0.995 | 0.918 | 0.763 | 0.426 | 0.025 | 0.822 | 0.865 | 0.784 | 0.728 | 0.533 | 1.17 | 1.08 | 1.12 | 1.06 | 1.22
27 | primary DLBCL patient cells (S082) | 0.963 | 0.972 | 0.916 | 0.543 | 0.0168 | 0.854 | 0.818 | 0.621 | 0.265 | 0.224 | 1.06 | 1.04 | 1.09 | 1.08 | 1.11
28 | primary FL patient cells (S022) | 0.96 | 1.09 | 0.998 | 0.429 | 0.0378 | 1.02 | 0.957 | 0.902 | 0.951 | 0.544 | 0.974 | 1.1 | 0.985 | 0.933 | 1.03
29 | primary FL patient cells (S087) | 1.01 | 1.01 | 0.853 | 0.698 | 0.0383 | 0.946 | 0.956 | 0.881 | 0.769 | 0.368 | 0.964 | 1.07 | 1.03 | 1.05 | 1.01
30 | primary MCL patient cells (S041) | 1.06 | 1.01 | 0.891 | 0.135 | 0.0153 | 1.04 | 0.955 | 0.907 | 0.771 | 0.564 | 1.12 | 1.14 | 1.09 | 1.09 | 1.12
31 | primary MCL patient cells (S053) | 1.04 | 1.17 | 0.965 | 0.506 | 0.0844 | 0.874 | 0.868 | 0.705 | 0.536 | 0.344 | 1.13 | 1.04 | 1.11 | 1.08 | 1.21
32 | primary MCL patient cells (S063) | 1.06 | 1.07 | 0.776 | 0.486 | 0.0171 | 1.04 | 0.967 | 1 | 0.702 | 0.279 | 1.15 | 1.09 | 1.17 | 1.15 | 1.11
33 | primary MCL patient cells (S068) | 0.959 | 0.951 | 0.968 | 0.717 | 0.0216 | 0.883 | 0.815 | 0.478 | 0.269 | 0.181 | 1.16 | 1.08 | 1.14 | 1.09 | 1.27
34 | primary T-PLL patient cells (S008) | 1.02 | 1.11 | 1.03 | 0.86 | 0.0403 | 0.932 | 0.957 | 0.985 | 0.958 | 0.754 | 1.09 | 1.02 | 1.11 | 1.01 | 1.06
